The values below are quoted from earlier work in patent publication US8093271B2, “Anti-acid pharmaceutical composition in powder form and process for making it” (Laboratorios Bago S.A., priority 2006, dated 2012).

Each structure is given as a SMILES string. Like-named read-outs stand apart in the source and are kept apart here.

The conditions of data set [1]: in water.

Take `COc1ccc2[nH]c([S+]([O-])Cc3ncc(C)c(OC)c3C)nc2c1` (stereo not shown) [omeprazole]: under “absorption in the small intestine”, the “time by which absorption is completed” value was 3 to 6 h. For the same molecule, the “time required to reach the intestine” value (fasting state) was 20 to 30 min. The half life result in data set [1] (pH near 7) was “about 14 hours”; in data set [1] (pH of 4) it was “lower than 10 minutes”.
